Data as given in PubChem BioAssay (NCI).
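Values below derive from 48-hour exposures of cells grown in 96-well plates, with endpoints linearly interpolated between the two concentrations bracketing the appropriate inhibition level. GI50 is the concentration that inhibits growth by half. At the TGI there is no net growth.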

Legend:
Experiment in all cases: NCI tumour cell line growth inhibition, 48 h
A549 NSCLC = tested on: A549 NSCLC
ACHN renal = tested on: ACHN renal
CAKI-1 renal = tested on: CAKI-1 renal
OVCAR-5 ovarian = tested on: OVCAR-5 ovarian
SF-268 CNS = tested on: SF-268 CNS
SF-295 CNS = tested on: SF-295 CNS
SK-OV-3 ovarian = tested on: SK-OV-3 ovarian
HOP-92 NSCLC = tested on: HOP-92 NSCLC
KM12 colon = tested on: KM12 colon
SK-MEL-2 melanoma = tested on: SK-MEL-2 melanoma

Row | Structure (SMILES) | TGI (A549 NSCLC) [µM] | TGI (ACHN renal) [µM] | TGI (CAKI-1 renal) [µM] | TGI (OVCAR-5 ovarian) [µM] | TGI (SF-268 CNS) [µM] | TGI (SF-295 CNS) [µM] | TGI (SK-OV-3 ovarian) [µM] | TGI (HOP-92 NSCLC) [µM] | TGI (KM12 colon) [µM] | GI50 (OVCAR-5 ovarian) [µM] | TGI (SK-MEL-2 melanoma) [µM] | GI50 (A549 NSCLC) [µM] | GI50 (ACHN renal) [µM] | GI50 (CAKI-1 renal) [µM] | GI50 (HOP-92 NSCLC) [µM] | GI50 (KM12 colon) [µM] | GI50 (SF-268 CNS) [µM] | GI50 (SF-295 CNS) [µM] | GI50 (SK-MEL-2 melanoma) [µM] | GI50 (SK-OV-3 ovarian) [µM]
1 | O=C1c2ccccc2C(=O)N1CC(O)COc1cccc2ccccc12 (centres undefined) | > 100 | > 100 | > 100 | > 100 | > 100 | > 100 | > 100 | – | – | – | – | – | – | – | – | – | – | – | – | –
2 | NC(=S)N/N=C\c1nccc2ccccc12 | > 100 | 0.317 | – | > 100 | 1.47 | 0.781 | 0.681 | 4.56 | > 100 | 0.469 | > 100 | – | – | – | – | – | – | – | – | –
3 | Cc1ccc(S(=O)(=O)N2CCCSCC2)cc1 | > 100 | > 100 | – | – | > 100 | > 100 | > 100 | > 100 | > 100 | – | – | – | – | – | – | – | – | – | – | –
4 | CCCC(=O)Nc1cc(/C=C/C(=O)N2CC(CCl)c3c2cc(O)c2[nH]cc(C)c32)n(C)c1 (centres undefined) | – | < 2.5e-05 | < 2.5e-05 | 0.0286 | < 2.5e-05 | 2.98e-05 | 0.00563 | < 2.5e-05 | > 0.25 | – | < 2.5e-05 | – | – | – | – | – | – | – | – | –
5 | Oc1ccc(-c2nc3ccc(Cl)cc3s2)cc1 | 45.2 | > 100 | 36.5 | 33 | 33.8 | 34.1 | 36.4 | – | 34.2 | – | 34 | – | – | – | – | – | – | – | – | –
6 | CC1(C)OCC=CCO1 | > 100 | > 100 | > 100 | > 100 | > 100 | > 100 | > 100 | > 100 | > 100 | – | > 100 | – | – | – | – | – | – | – | – | –
7 | COc1cc2c(cc1OCCCC(=O)Nc1ccc3ccc4cccc5ccc1c3c45)N=C[C@@H]1CCCN1C2=O | – | > 100 | 1.63 | < 0.0506 | 0.864 | 1.08 | 46.9 | 1.07 | 0.725 | < 0.01 | < 0.01 | < 0.021 | 0.044 | 0.434 | 0.147 | 0.104 | 0.27 | 0.217 | < 0.01 | 10.3
8 | CC(=O)c1cc2ccccc2oc1=O | > 100 | > 100 | > 100 | > 100 | > 100 | > 100 | – | > 100 | > 100 | – | > 100 | – | – | – | – | – | – | – | – | –
9 | COc1cc(C(O)(CC#N)c2cc3c(cc2Br)OCO3)cc(OC)c1OC (centres undefined) | > 100 | > 100 | 75.8 | > 100 | > 100 | > 100 | > 100 | > 100 | 98.7 | – | > 100 | – | – | – | – | – | – | – | – | –
10 | O=C1C(Cl)=C(Nc2ccc(S(=O)(=O)Nc3ccccn3)cc2)C(=O)c2ccccc21 | 41.9 | 31.2 | > 52.1 | > 46.9 | 29.3 | 35.2 | 43 | 15.4 | 32.4 | – | 15.3 | – | – | – | – | – | – | – | – | –
11 | CC1=C(C)Cc2c(O)ccc(O)c2C1 | 41.9 | 31.2 | 34.1 | 38.6 | 31.8 | > 100 | > 100 | 36.4 | > 100 | – | – | – | – | – | – | – | – | – | – | –
